The term pIC50 denotes −log10 of the IC50, conventionally taken in molar units.

One experiment concerns the target T1, adenosine A2 receptor (Rattus norvegicus, UniProt P30543).
T1 construct: Brains are thawed and then kept on ice while the striata are dissected out; tissue Pel-Freez (Rogers, Arkansas); host or cells: rat striatum, membranes
The experiment can be described thus: Adenosine Receptor Binding--A2 Receptor Affinity (RBA2), [3H]NECA, rat striatal membranes. Details: species or system rat (Sprague-Dawley; Long-Evans hooded). Particulars: 4 nM [3H]NECA, 50 nM N6-cyclopentyladenosine, 25° C., 60 min, read-out: RBA-2 (IC50, adenosine A2 receptor affinity). As to the method:
Brains from 200-500 g mixed sex Sprague-Dawley rats are purchased from Pel-Freez (Rogers, Arkansas). Fresh brains from male Long-Evans hooded rats (Blue Spruce Farms, Altamont, NY) give essentially identical results. Brains are thawed and then kept on ice while the striata are dissected out. Striata are disrupted in 10 vol of ice-cold 50 mM Tris.HCl (pH 7.7 at 25° C., pH 8.26 at 5° C.) (Tris) for 30 seconds in a Polytron PT-10 (Brinkman) at setting 5. The suspension is centrifuged at 50,000 xg for ten minutes, the supernatant discarded, the pellet resuspended in 10 vol ice-cold Tris as above, recentrifuged, resuspended at 1 g/5 ml, and stored in plastic vials at -70° C. (stable for at least six months). When needed, tissue is thawed at room temperature, disrupted in a Polytron, and kept on ice until used.
All incubations are for 60 minutes at 25° C. in 12×75 mm glass tubes containing 1 ml Tris with 5 mg original tissue weight of rat weight of rat striatal membranes, 4 nM [^3 H]-N-ethyl adenosine-5'-carboxamide ([^3 H]NECA), 50 nM N6-cyclopentyladenosine (to eliminate A1 receptor binding), 10 mM MgCl2, 0.1 units/ml of adenosine deaminase and 1% dimethylsulfoxide. N6-Cyclopentyladenosine is dissolved at 10 mM in 0.02 N HCl and diluted in Tris. Stock solutions and dilutions of N6-cyclopentyladenosine can be stored at -20° C. for several months. Test compounds are dissolved at 10 mM in dimethylsulfoxide on the same day as the experiment, and diluted in dimethylsulfoxide to 100× the final incubation concentration. […] [^3 H]NECA is diluted to 40 nM in Tris. The membrane suspension (5 mg/0.79 ml) contained sufficient MgCl2 and adenosine deaminase to give 10 mM and 0.1 units/ml, respectively, final concentration in the incubation. […] After all additions, the rack of tubes is vortexed, and the tubes are then incubated for 60 min at 25° C. in a shaking water bath. The rack of tubes is vortexed an additional time halfway through the incubation.
Incubations are terminated by filtration through 2.4 cm GF/B filters under reduced pressure. Each tube is filtered as follows: the contents of the tube are poured on the filter, 4 ml of ice-cold Tris are added to the tube and the contents poured onto the filter, and the filter is washed twice with 4 ml of ice-cold Tris. The filtration is complete in about twelve seconds. Filters are put in scintillation vials, 8 ml of Formula 947 scintillation fluid added, and the vials left overnight, shaken, and counted in a liquid scintillation counter at 40% efficiency.
Nonspecific binding is defined as binding in the presence of 100 μM N6-cyclopentyladenosine, and specific binding is defined as total binding minus nonspecific binding. The IC50 is calculated by weighted nonlinear least squares curve-fitting to the mass-action equation. [formula] where
Weighting factors are calculated under the assumption that the standard deviation was proportional to the predicted value of Y. Nonspecific binding is treated as a very large (infinite) concentration of drug in the computer analysis.

For a further experiment, the target named is T2, adenosine A1 receptor (Rattus norvegicus, UniProt P25099).
T2 construct: Whole brain minus cerebellum and brainstem from male Long-Evans rats (150-200 g) is homogenized; from tissue; host or cells: rat whole brain minus cerebellum and brainstem, membranes
T2 sequence (P25099 1-326): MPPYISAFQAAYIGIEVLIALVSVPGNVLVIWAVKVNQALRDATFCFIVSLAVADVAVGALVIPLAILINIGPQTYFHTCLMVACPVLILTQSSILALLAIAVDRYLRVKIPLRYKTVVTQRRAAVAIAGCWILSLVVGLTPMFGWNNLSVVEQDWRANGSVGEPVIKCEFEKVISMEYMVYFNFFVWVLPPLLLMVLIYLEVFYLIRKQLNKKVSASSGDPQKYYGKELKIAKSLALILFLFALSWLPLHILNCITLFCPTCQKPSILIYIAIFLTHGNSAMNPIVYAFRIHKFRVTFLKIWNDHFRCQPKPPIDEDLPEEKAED
The experiment can be described thus: Adenosine Receptor Binding--A1 Receptor Affinity (RBA1), [3H]-CHA, rat whole brain minus cerebellum and brainstem membranes. The conditions noted are these: 1.0 nM [3H]-CHA, pH 7.7, 25° C., one hour, read-out: RBA-1 (IC50, adenosine A1 receptor affinity). Details: species or system rat (male Long-Evans). As to the method:
Whole brain minus cerebellum and brainstem from male Long-Evans rats (150-200 g) is homogenized in 30 volumes of ice-cold 0.05 M Tris-HCl buffer pH 7.7 using a Brinkman Polytron PT-10, (setting number 6 for 20 seconds) and centrifuged for ten minutes at 20,000×g (Sorvall RC-2), 4° C. The supernatant is discarded, and the pellet is resuspended and centrifuged as before. The pellet is resuspended in 20 ml Tris-HCl buffer containing two International Units/ml of adenosine deaminase (Sigma type III from calf intestinal mucosa), incubated at 37° C. for 30 minutes, then subsequently at 0° C. for ten minutes. The homogenate is again centrifuged, and the final pellet is resuspended in ice-cold 0.05 M Tris-HCl buffer pH 7.7 to a concentration of 20 mg/ml original wet tissue weight and used immediately. […] Incubation volume was 2 ml. […] The filters are rinsed three times with 5 ml of ice-cold 0.05 M Tris-HCl buffer pH 7.7. The radio-labeled ligand retained on the filter is measured by liquid scintillation spectrophotometry after shaking the filters for one hour or longer on a mechanical shaker in 10 ml of Beckman Ready-Solv HP scintillation cocktail. Nonspecific binding is defined as the binding which occurs in the presence of 1 mM theophylline. […] The Scatchard plot is calculated by linear regression of the line obtained by plotting the amount of radioligand bound (pmoles/gram of tissue) versus [formula] Since the amount of radioligand bound is a small fraction of the total amount added, free radioligand is defined as the concentration of (nM) of radioligand added to the incubation mixture. The Hill coefficient is calculated by linear regression of the line obtained by plotting the log of the bound radioligand vs the log of the [formula] The maximal number of binding sites (Bmax) is calculated from the Scatchard plot.

pIC50: −log10 of the molar value.

T1 sequence (P30543 whole entry): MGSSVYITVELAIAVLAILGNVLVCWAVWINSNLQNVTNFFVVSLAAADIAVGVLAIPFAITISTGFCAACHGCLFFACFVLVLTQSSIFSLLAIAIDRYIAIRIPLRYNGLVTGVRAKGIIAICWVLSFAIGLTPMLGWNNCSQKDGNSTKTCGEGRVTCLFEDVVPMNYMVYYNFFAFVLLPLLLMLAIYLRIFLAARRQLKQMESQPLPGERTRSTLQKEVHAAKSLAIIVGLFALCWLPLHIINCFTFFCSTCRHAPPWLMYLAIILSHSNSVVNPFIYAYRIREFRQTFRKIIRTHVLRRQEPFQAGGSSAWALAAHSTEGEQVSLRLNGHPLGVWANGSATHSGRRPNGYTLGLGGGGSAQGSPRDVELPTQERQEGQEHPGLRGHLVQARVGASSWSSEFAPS

For the molecule `CCc1nnc2c(Nc3ccccc3)nc3ccccc3n12` [Example 11, 1-Ethyl-N-phenyl[1,2,4]triazolo[4,3-a]quinoxalin-4-amine], the results for the pIC50 at adenosine A2 receptor and at adenosine A1 receptor were 4.70 and 6.01, respectively.

For the molecule `c1ccc2c(c1)nc(NC1CCCC1)c1nncn12` [Example 1, N-Cyclopentyl[1,2,4]triazolo[4,3-a]quinoxalin-4-amine], the pIC50 on adenosine A2 receptor was 5.11; at adenosine A1 receptor it was 6.48.

`CCCCc1nnc2c(NC3CCCC3)nc3ccccc3n12` [Example 5, 1-Butyl-N-cyclopentyl[1,2,4]triazolo[4,3-a]quinoxalin-4-amine]: the pIC50 on adenosine A2 receptor was below 4.00; on adenosine A1 receptor, 7.00.

For `CCc1nnc2c(NC3CCCC3)nc3ccccc3n12` [Example 3, N-Cyclopentyl-1-ethyl[1,2,4]triazolo[4,3-a]quinoxalin-4-amine], the pIC50 on adenosine A2 receptor is 5.60; at adenosine A1 receptor it was 7.30.

In the case of `CCc1nnc2c(NC3CC3)nc3ccccc3n12` [Example 6, N-Cyclopropyl-1-ethyl[1,2,4]triazolo[4,3-a]quinoxalin-4-amine], the pIC50 on adenosine A2 receptor was 5.18; on adenosine A1 receptor it was 6.31.

Take `FC(F)(F)c1nnc2c(NC3CCCC3)nc3ccccc3n12` [Example 13, N-Cyclopentyl-1-(trifluoromethyl)[1,2,4]triazolo [4,3-a]quinoxalin-4-amine]: the figures for the pIC50 on adenosine A2 receptor and on adenosine A1 receptor were 5.68 and 7.90, respectively.

Consider `CCc1nnc2c(N[C@@H]3C[C@H]4CC[C@@H]3C4)nc3ccccc3n12` (relative stereo) [Example 9, Exo-N-bicyclo[2.2.1]hept-2-yl-1-ethyl[1,2,4]triazolo [4,3-a]quinoxalin-4-amine], for which the pIC50 was 5.06 on adenosine A2 receptor and 7.13 at adenosine A1 receptor.

For the molecule `CCc1nnc2c(NC3CCC3)nc3ccccc3n12` [Example 7, N-Cyclobutyl-1-ethyl[1,2,4]triazolo[4,3-a]quinoxalin-4-amine], the pIC50 at adenosine A2 receptor was 5.63; at adenosine A1 receptor, 6.96.

Turning to `CCCc1nnc2c(NC3CCCC3)nc3ccccc3n12` [Example 4, N-Cyclopentyl-1-propyl[1,2,4]triazolo[4,3-a]quinoxalin-4-amine], the pIC50 at adenosine A2 receptor was 5.29; at adenosine A1 receptor it was 7.17.

On to `Cc1nnc2c(NC3CCCC3)nc3ccccc3n12` [Example 2, N-cyclopentyl-1-methyl[1,2,4]triazolo[4,3-a]quinoxalin-4-amine], for which the pIC50 is 5.21 at adenosine A2 receptor and 7.15 on adenosine A1 receptor.

`CCc1nnc2c(NC[C@H](C)O)nc3ccccc3n12` [Example 10, (S)-1-[(1-ethyl[1,2,4]triazolo[4,3-a]quinoxalin-4-yl)amino]-2-propanol]: the pIC50 at adenosine A2 receptor was 4.39; at adenosine A1 receptor it was 6.26.

`CCc1nnc2c(NC3CCCCC3)nc3ccccc3n12` [Example 8, N-Cyclohexyl-1-ethyl[1,2,4]triazolo[4,3-a]quinoxalin-4-amine]: the pIC50 at adenosine A2 receptor is 5.23; at adenosine A1 receptor it was 6.84.

The values are drawn from patent publication US4780464A, “(1,2,4)triazolo(4,3-a)quinoxaline-4-amines” (Warner-Lambert Company, priority 1986, dated 1988).
